The values below come from US9115149B2, “Heterocyclic compounds as inhibitors of fatty acid biosysnthesis for bacterial infections” (Vitas Pharma Research Private Limited, priority 2011, dated 2015).

Data set [1] concerns Methicillin resistant Staphylococcus aureus (ATCC 33591). As to the kind of experiment: MIC by microbroth dilution, methicillin resistant S. aureus. It is filed as cell-based. The note with it: ATCC33591, read-out: Minimum inhibitory concentration (MIC) Methicillin resistant Staphylococcus aureus (ATCC 33591). As to the method:
(§1) Shown below are the biological activities of representative compounds of the invention. The compounds were tested by the microbroth dilution method (National committee for Clinical Laboratory Standards, M07-A8, Volume 29, 2009) to determine the Minimum Inhibitory Concentration (MIC) against Methicillin sensitive and resistant Staphylococcus aureus. The MICs in the presence of 10% BSA was also tested. Further, select compounds were tested for metabolic stability using mouse liver microsomes based on published protocols (Journal of Biological Sciences, 2008, 8, 1110-1114).

Data set [2] has as its system Bacillus subtilis (ΔFabI, ΔFabL; Pxylose SaFabI). As to the kind of experiment: Target specificity: MIC in B. subtilis expressing S. aureus FabI under xylose inducible promoter. It is filed as cell-based. As to the method: To test for target specificity, the MIC was determined in a Bacillus subtilis strain in which the two FabI homologues (FabI and FabL) were deleted and replaced with S. aureus FabI (Sa FabI) under a Xylose inducible promoter. By varying the amount of xylose in the growth medium, the expression of FabI was proportionately modified. Compounds specifically targeting Sa FabI show an increased MIC when higher amounts of FabI are present in the cell (high Xylose concentrations). In contrast, when FabI levels are low, the cell becomes hypersusceptible, reducing the MIC (low Xylose concentrations). […] Shown below are data for target specificity.

In data set [3] the test system is Staphylococcus aureus (ATCC29213). As to the kind of experiment: MIC by microbroth dilution, methicillin sensitive S. aureus. The format is cell-based. The note with it: read-out: Minimum inhibitory concentration (MIC) Staphylococcus aureus (ATCC29213). Here is the method:
as §1

The nature of data set [4]: Metabolic stability in mouse liver microsomes. The format is in vitro ADME. Here is the method: as §1
On the technique in general: Liver microsomes are vesicles of endoplasmic reticulum, rich in cytochrome P450 enzymes.

Data set [5] can be described thus: Pharmacokinetic profile in male Swiss albino mice. The note with it: mouse, in vivo; for AUC / Cmax / clearance / half-life: intravenous single dose 5 mg/kg body weight; for bioavailability: po. Here is the method:
The following compounds were dosed to male Swiss albino mice to determine the pharmacokinetic profiles.

The subject of data set [6] is Methicillin resistant Staphylococcus aureus (ATCC 33591). Briefly: MIC in the presence of BSA. It is filed as cell-based. Conditions: ATCC33591, 10% BSA. As to the method: as §1
Setting [7] is: read-out: MIC in the presence of 0.005% Xylose (low Xylose concentration).
Setting [8] is: read-out: MIC in the presence of 0.5% Xylose (high Xylose concentration).

Converted amounts (≈) assume the structure as drawn. Read-outs that look alike come from different tables or passages of the source.

On to `CN(Cc1cc2ccccc2n1C)C(=O)/C=C/c1cnc2[nH]ncc2c1` [VT-02-00032, (E)-N-Methyl-N-(1-methyl-1H-indol-2-ylmethyl)-3-(1H-pyrazolo[3,4-b]pyridin-5-yl)-acrylamide], for which the MIC was found to be 4000 ng/mL (≈ 11.6 µM) in data set [1], 125 ng/mL in data set [2] (setting [7]), 4000 ng/mL in data set [2] (setting [8]) and 4000 ng/mL (≈ 11.6 µM) in data set [3].
As to `CNc1n[nH]c2ncc(/C=C/C(=O)N(C)Cc3cc4ccccc4n3C)cc12` [VT-02-00036, (E)-N-Methyl-3-(3-methylamino-1H-pyrazolo[3,4-b]pyridin-5-yl)-N-(1-methyl-1H-indol-2-ylmethyl)-acrylamide], the MIC in data set [1] is 8000 ng/mL (≈ 21.4 µM); in data set [2] (setting [7]), 500 ng/mL; in data set [2] (setting [8]), 2000 ng/mL; in data set [3], 8000 ng/mL (≈ 21.4 µM).
The AUC is the area under the concentration-time curve, a measure of exposure. Low readings indicate low exposure, high ones high exposure. One may read the Cmax as the peak of the concentration-time curve. Usually clearance stands for the rate of elimination divided by the concentration. A lower clearance goes with inefficient removal. As usually defined, the half-life is the time in which the quantity being followed falls by half. A higher half-life goes with slow loss. In general, bioavailability refers to dose-corrected exposure relative to a reference, in per cent. Read a low bioavailability as little systemic uptake. Turning to `CN(Cc1cc2ccccc2n1C)C(=O)/C=C/c1cnc2[nH]nc(N(C)C)c2c1` [VT-02-00039, (E)-3-(3-Dimethylamino-1H-pyrazolo[3,4-b]pyridin-5-yl)-N-methyl-N-(1-methyl-1H-indol-2-ylmethyl)-acrylamide], the “Metabolic stability (mouse liver microsomes) % of compound remaining after 30 minutes” value in data set [4] is recorded as 46%. Further, in data set [5], the AUC came to 0.908 µg·h/mL, the peak level (Cmax) was 0.868 µg/mL, the clearance was 5.49 L/h/kg and the half-life is 46.2 min. The molecule also gave a bioavailability in data set [5] of 19%. The MIC in data set [1] was 2000 ng/mL (≈ 5.15 µM). The MIC in data set [2] (setting [7]) was 60 ng/mL. The MIC in data set [2] (setting [8]) is 1000 ng/mL. Also, in data set [3], the MIC came to 2000 ng/mL (≈ 5.15 µM).
As for `CN(Cc1cc2ccccc2n1C)C(=O)/C=C/c1cnc2[nH]c(=O)n(C)c2c1` [VT-02-00043, (E)-N-Methyl-N-(1-methyl-1H-indol-2-ylmethyl)-3-(1-methyl-2-oxo-2,3-dihydro-1H-imidazo[4,5-b]pyridin-6-yl)-acrylamide], the MIC in data set [1] stood at 8000 ng/mL (≈ 21.3 µM); in data set [2] (setting [7]) it was 7.8 ng/mL; in data set [2] (setting [8]) it was 30 ng/mL; in data set [3] it was 4000 ng/mL (≈ 10.7 µM).
For the molecule `COc1n[nH]c2ncc(/C=C/C(=O)N(C)Cc3cc4ccccc4n3C)cc12` [VT-02-00046, (E)-3-(3-Methoxy-1H-pyrazolo[3,4-b]pyridin-5-yl)-N-methyl-N-(1-methyl-1H-indol-2-ylmethyl)-acrylamide], the MIC in data set [1], in data set [2] (setting [7]), in data set [2] (setting [8]) and in data set [3] was greater than 32000 ng/mL each time.
As to `CCn1c(=O)[nH]c2ncc(/C=C/C(=O)N(C)Cc3cc4ccccc4s3)cc21` [VT-02-00049, (E)-N-(benzo[b]thiophen-2-ylmethyl)-3-(1-ethyl-2-oxo-2,3-dihydro-1H-imidazo[4,5-b]pyridin-6-yl)-N-methylacrylamide], in data set [4], the “Metabolic stability (mouse liver microsomes) % of compound remaining after 30 minutes” value is given as 44%. For the same molecule, the MIC in data set [1] came out at 500 ng/mL (≈ 1.27 µM); in data set [2] (setting [7]), 0.48 ng/mL; in data set [2] (setting [8]), 31 ng/mL; in data set [3], 500 ng/mL (≈ 1.27 µM).
For the molecule `CN(Cc1cc2ccccc2n1C)C(=O)/C=C/c1cnc2c(c1)C(C)(C)C(=O)N2` [VT-02-00055, (E)-3-(3,3-dimethyl-2-oxo-2,3-dihydro-1H-pyrrolo[2,3-b]pyridin-5-yl)-N-methyl-N-((1-methyl-1H-indol-2-yl)methyl)acrylamide], the “Metabolic stability (mouse liver microsomes) % of compound remaining after 30 minutes” value in data set [4] was determined as 40.3%. For the same molecule, the MIC came out at 2000 ng/mL in data set [6]; 250 ng/mL (≈ 0.644 µM) in data set [1]; 60 ng/mL in data set [2] (setting [7]); 2000 ng/mL in data set [2] (setting [8]); 250 ng/mL (≈ 0.644 µM) in data set [3].
Take `CCC1(CC)C(=O)Nc2ncc(/C=C/C(=O)N(C)Cc3cc4ccccc4n3C)cc21` [VT-02-00064, (E)-3-(3,3-diethyl-2-oxo-2,3-dihydro-1H-pyrrolo[2,3-b]pyridin-5-yl)-N-methyl-N-((1-methyl-1H-indol-2-yl)methyl)acrylamide]: the “Metabolic stability (mouse liver microsomes) % of compound remaining after 30 minutes” value in data set [4] was 18%. Besides, in data set [5], the AUC amounted to 1.4 µg·h/mL, the peak level (Cmax) was 1.81 µg/mL, the clearance amounted to 3.57 L/h/kg and the half-life was 26.4 min. Also, in data set [5], the bioavailability worked out at 51.5%. In addition, in data set [6], the MIC was 1000 ng/mL. Also, the MIC in data set [1] worked out at 120 ng/mL (≈ 0.288 µM). For the same molecule, the MIC in data set [2] (setting [7]) amounted to 30 ng/mL. The MIC in data set [2] (setting [8]) came to 250 ng/mL. Besides, the MIC in data set [3] is 120 ng/mL (≈ 0.288 µM).
Regarding `CN(Cc1cc2ccccc2s1)C(=O)/C=C/c1cnc2c(c1)C(C)(C)C(=O)N2` [VT-02-00066, (E)-N-(benzo[b]thiophen-2-ylmethyl)-3-(3,3-dimethyl-2-oxo-2,3-dihydro-1H-pyrrolo[2,3-b]pyridin-5-yl)-N-methylacrylamide], the “Metabolic stability (mouse liver microsomes) % of compound remaining after 30 minutes” value in data set [4] is recorded as 29%. In addition, the MIC in data set [6] came out at 4000 ng/mL; in data set [1], 500 ng/mL (≈ 1.28 µM); in data set [2] (setting [7]) it was 7.8 ng/mL; in data set [2] (setting [8]), 1000 ng/mL; in data set [3], 500 ng/mL (≈ 1.28 µM).
As to `Cc1c(CN(C)C(=O)/C=C/c2cnc3c(c2)C(C)(C)C(=O)N3)sc2ccccc12` [VT-02-00069, (E)-3-(3,3-dimethyl-2-oxo-2,3-dihydro-1H-pyrrolo[2,3-b]pyridin-5-yl)-N-methyl-N-((3-methylbenzo[b]thiophen-2-yl)methyl)acrylamide], in data set [4], the “Metabolic stability (mouse liver microsomes) % of compound remaining after 30 minutes” value turned out to be 10%. The MIC in data set [6] is 1000 ng/mL; in data set [1] it was 15 ng/mL (≈ 0.037 µM); in data set [2] (setting [7]) it was 0.2 ng/mL; in data set [2] (setting [8]), 15 ng/mL; in data set [3] it was 15 ng/mL (≈ 0.037 µM).
On to `CN(Cc1cc2ccccc2n1C)C(=O)/C=C/c1cnc2c(c1)C1(CCC1)C(=O)N2` [VT-02-00070, (E)-N-methyl-N-((1-methyl-1H-indol-2-yl)methyl)-3-(2′-oxo-1′,2′-dihydrospiro[cyclobutane-1,3′-pyrrolo[2,3-b]pyridine]-5′-yl)acrylamide], for which the “Metabolic stability (mouse liver microsomes) % of compound remaining after 30 minutes” value in data set [4] is reported as 45%. The MIC in data set [6] is 2000 ng/mL; in data set [1], 500 ng/mL (≈ 1.25 µM); in data set [2] (setting [7]), less than 0.000119 ng/mL; in data set [2] (setting [8]), 7.8 ng/mL; in data set [3] it was 500 ng/mL (≈ 1.25 µM).
Regarding `Cc1c(CN(C)C(=O)/C=C/c2cnc3c(c2)C2(CCCC2)C(=O)N3)sc2ccccc12` [VT-02-00074, (E)-N-methyl-N-((3-methylbenzo[b]thiophen-2-yl)methyl)-3-(2′-oxo-1′,2′-dihydrospiro[cyclopentane-1,3′-pyrrolo[2,3-b]pyridine]-5′-yl)acrylamide], the “Metabolic stability (mouse liver microsomes) % of compound remaining after 30 minutes” value in data set [4] was 8%. The MIC in data set [6] was 1000 ng/mL; in data set [1], 60 ng/mL (≈ 0.139 µM); in data set [2] (setting [7]), 7.8 ng/mL; in data set [2] (setting [8]), 60 ng/mL; in data set [3] it was 60 ng/mL (≈ 0.139 µM).
Consider `Cc1c(CN(C)C(=O)/C=C/c2cnc3c(c2)C2(CCCCC2)C(=O)N3)sc2ccccc12` [VT-02-00075, (E)-N-methyl-N-((3-methylbenzo[b]thiophen-2-yl)methyl)-3-(2′-oxo-1′,2′-dihydrospiro[cyclohexane-1,3′-pyrrolo[2,3-b]pyridine]-5′-yl)acrylamide], for which the “Metabolic stability (mouse liver microsomes) % of compound remaining after 30 minutes” value in data set [4] came out at 5%. Further, the MIC was 4000 ng/mL in data set [6]; 500 ng/mL (≈ 1.12 µM) in data set [1]; less than 0.00191 ng/mL in data set [2] (setting [7]); 0.00763 ng/mL in data set [2] (setting [8]); 500 ng/mL (≈ 1.12 µM) in data set [3].
Turning to `CN(Cc1cn(C)c2ccccc12)C(=O)/C=C/c1ccc2c(c1)C1(CCC1)C(=O)N2` [VT-02-00085, (E)-N-methyl-N-((1-methyl-1H-indol-3-yl)methyl)-3-(2′-oxospiro[cyclobutane-1,3′-indoline]-5′-yl)acrylamide], in data set [4], the “Metabolic stability (mouse liver microsomes) % of compound remaining after 30 minutes” value turned out to be 33%. Further, the MIC in data set [6] is 1000 ng/mL; in data set [1], 60 ng/mL (≈ 0.15 µM); in data set [2] (setting [7]), 0.97 ng/mL; in data set [2] (setting [8]), 60 ng/mL; in data set [3], 60 ng/mL (≈ 0.15 µM).
For `Cc1ccc2oc(CN(C)C(=O)/C=C/c3ccc4c(c3)C3(CCC3)C(=O)N4)c(C)c2c1` [VT-02-00086, (E)-N-((3,5-dimethylbenzofuran-2-yl)methyl)-N-methyl-3-(2′-oxospiro[cyclobutane-1,3′-indoline]-5′-yl)acrylamide], in data set [4], the “Metabolic stability (mouse liver microsomes) % of compound remaining after 30 minutes” value came to 26%. In addition, the MIC stood at 8000 ng/mL in data set [6]; 500 ng/mL (≈ 1.21 µM) in data set [1]; 60 ng/mL in data set [2] (setting [7]); 500 ng/mL in data set [2] (setting [8]); 500 ng/mL (≈ 1.21 µM) in data set [3].
For `Cc1c(CN(C)C(=O)/C=C/c2cnc3c(c2)C2(CCC2)C(=O)N3)oc2ccccc12` [VT-02-00092, (E)-N-methyl-N-((3-methylbenzofuran-2-yl)methyl)-3-(2′-oxo-1′,2′-dihydrospiro[cyclobutane-1,3′-pyrrolo[2,3-b]pyridine]-5′-yl)acrylamide], the “Metabolic stability (mouse liver microsomes) % of compound remaining after 30 minutes” value in data set [4] is 22%. For the same molecule, the MIC was determined as 250 ng/mL in data set [6], 60 ng/mL (≈ 0.149 µM) in data set [1], 3.9 ng/mL in data set [2] (setting [8]) and 60 ng/mL (≈ 0.149 µM) in data set [3].
